Experimental findings from article PMC9862597, “Anti-Colorectal Cancer Effects of a Novel Camptothecin Derivative PCC0208037 In Vitro and In Vivo” (Pharmaceuticals, 2022) are described below.

A value given as a limit tells only on which side of the number the result lay.

The nature of data set [1]: PCC0208037- and CPT-11-induced toxicity in mice. The conditions noted are these: 50 mg/kg/day i.p. for four days.
A further data set deals with CT-26 cells. Kind of data set: MTT cell viability assay, CT-26. The format is cell-based. The note with it: Mus musculus, CT26; CT-26, MTT, 72 h, n = 3. How it is done: (§1) Cell viability was assessed using the MTT assay, as previously reported. Briefly, colorectal cancer cells (LS180, HCT116, CT-26, and HT-29 cells) were plated onto 96-well plates at 3000 cells per well and incubated overnight. […] Control cells were treated with DMSO at a final concentration of 0.1%. Cells were cultured with the compounds or medium for 72 h. The cells were then treated with MTT. The medium was then decanted, and DMSO was added and shaken until the color reaction was complete. The […] were read using a Molecular Devices SpectraMax M5 (San Jose, CA, USA) at OD570 nm. The half maximal inhibitory concentration (IC50) was calculated.
(In general: Formazan colour is commonly taken as a measure of viable cells.)

Data set [2] in a line: Pharmacokinetic study, single intravenous dose. The conditions noted are these: for AUCinf / AUClast: n = 3. How it is done: Blood samples were collected at 0.083 h, 0.25 h, 0.5 h, 1 h, 2 h, 4 h, 8 h, and 12 h after administration. Plasma was prepared after centrifugation at 6000× g for 5 min and then stored at −20 °C for further analysis.
The next data set has as its system LS180 xenograft tumor. Kind of data set: Subcutaneous LS180 xenograft model. In kind it is in vivo, nude mice. The note with it: PCC0208037 5, 10, 20 mg/kg; CPT-11 10 mg/kg; i.v. once every 3 days. On the procedure:
To establish xenograft tumor models, RPMI 1640 and Matrigel were mixed at a 1:1 ratio. Colorectal cancer cells (LS180: 5 × 10^6 cells) were added to 0.1 mL of the mixture, and male nude mice were subcutaneously injected with colorectal cancer cells on the right side. […] Tumor volume and animal weight were measured every 3 days and continued until the end of the experiments. All mice were euthanized by cervical dislocation at the end of the experiment, and the xenograft tumors were removed and weighed.
Figure 8 Anti-tumor effect of PCC0208037 in the LS180 xenograft tumor model. (A) Representative tumors removed after the last treatment in each treatment group. (B) Body weight gain curves of mice bearing an LS180 xenograft tumor. (C) Tumor weights in the different groups of mice after 15 d of treatment.

The next data set has as its system LS180 cells. Kind of data set: MTT cell viability assay, LS180. In kind it is cell-based. The conditions noted are these: Homo sapiens; LS180, MTT, 72 h, n = 3; read-out: IC50. On the procedure: as §1
In a further data set the test system is HT-29 cells. Kind of data set: MTT cell viability assay, HT-29. In kind it is cell-based. The conditions noted are these: Homo sapiens; HT-29, MTT, 72 h, n = 3. On the procedure: as §1
For another data set, the system named is HCT116 cells. Kind of data set: MTT cell viability assay, HCT116. In kind it is cell-based. The conditions noted are these: Homo sapiens, HCT-116; HCT116, MTT, 72 h, n = 3; read-out: IC50. On the procedure: as §1
The target of a further data set is T1, recombinant Topo I (Homo sapiens, UniProt P11387).
T1 construct: purchased TopoGEN, Inc (Buena Vista, CO, USA) TG1018
T1 sequence (P11387 1-765): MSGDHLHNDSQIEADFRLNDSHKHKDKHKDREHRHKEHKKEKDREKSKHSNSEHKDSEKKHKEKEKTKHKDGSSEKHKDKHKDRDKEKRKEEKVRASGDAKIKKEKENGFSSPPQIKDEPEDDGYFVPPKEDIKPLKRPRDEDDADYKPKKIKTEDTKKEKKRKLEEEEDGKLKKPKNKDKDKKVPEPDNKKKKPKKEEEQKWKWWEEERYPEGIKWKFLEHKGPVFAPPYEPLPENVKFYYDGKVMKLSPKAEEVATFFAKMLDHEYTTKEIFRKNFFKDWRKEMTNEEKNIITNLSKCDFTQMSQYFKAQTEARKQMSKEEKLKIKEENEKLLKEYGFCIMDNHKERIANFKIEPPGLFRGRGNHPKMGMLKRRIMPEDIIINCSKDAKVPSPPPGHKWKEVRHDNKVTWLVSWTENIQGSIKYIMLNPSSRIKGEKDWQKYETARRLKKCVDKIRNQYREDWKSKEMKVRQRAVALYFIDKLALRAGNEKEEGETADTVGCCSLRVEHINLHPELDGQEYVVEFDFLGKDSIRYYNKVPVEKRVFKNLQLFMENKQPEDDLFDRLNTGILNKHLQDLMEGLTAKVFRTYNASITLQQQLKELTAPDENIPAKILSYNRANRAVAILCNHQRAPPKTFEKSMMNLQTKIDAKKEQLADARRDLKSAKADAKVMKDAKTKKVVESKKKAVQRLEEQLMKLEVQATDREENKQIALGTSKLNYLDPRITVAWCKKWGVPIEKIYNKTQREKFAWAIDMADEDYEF
Kind of data set: Topoisomerase I activity assay (DNA relaxation). The format is biochemical. The note with it: PCC0208037 100 and 10 nmol/L, SN-38 100 nmol/L, CPT-11 100 nmol/L; 30 min, 37 °C. How it is done:
To determine whether PCC0208037 inhibited Topo I activity, a DNA relaxation assay was conducted. In this assay, supercoiled plasmid DNA was relaxed and nicked by recombinant Topo I, while no nicked DNA would be found when the Topo I enzyme was inhibited.
A Topoisomerase I Drug Screening Kit was used to detect the inhibitory activity of PCC0208037 against Topo I in the cell-free system. 1 IU Topo I and 250 ng of supercoiled plasmid DNA were pre-incubated with DMSO, PCC0208037 (100 nmol/L and 10 nmol/L), SN-38(100 nmol/L), or CPT (100 nmol/L) in a reaction buffer with a final volume of 20 μL and incubated for 30 min at 37 °C; then, the reaction was stopped by the addition of 2 ul of 10% SDS. Then, proteinase K was added to 50 ug/mL, incubated for 15 min at 37 °C, and 0.1 vol. of a loading buffer (0.25% bromophenol blue, 50% glycerol) was added. The supercoiled, relaxed, or nicked DNA was separated by 1% agarose gel in a 1 TAE (Tris-Acetate-EDTA) buffer. Ethidium bromide-stained agarose gel was photographed using Gel Doc XR.
Figure 4 Inhibition of Topo I activity by PCC0208037. […] Plasmid DNA was separated by an agarose gel and stained with ethidium bromide.

[3] abbreviates: BALB/c, mouse, plasma, iv, 10 mg/kg.
[4] abbreviates: CPT-11 in plasma, 10 mg/kg CPT-11 i.v.
Where [5] appears, read: metabolite SN-38 in plasma after 10 mg/kg CPT-11 i.v.
Setting [6] is: metabolite SN-38 in plasma after 10.65 mg/kg PCC0208037 i.v.

The IC50 is the concentration that gives 50% inhibition. The term Cmax denotes the peak of the concentration-time curve. In general, Tmax refers to the time at which the peak concentration occurs. `CCc1c2c(nc3ccc(OC(=O)N4CCC(N5CCCCC5)CC4)cc13)-c1cc3c(c(=O)n1C2)COC(=O)[C@]3(O)CC` [CPT-11, Irinotecan]: in data set [1] (colon after 7 days), the “colorectal tissue histomorphological examination (H&E)” value was “extensive colorectal tissue damage”. Also, the diarrhea score entry in data set [1] (later stage of study, p < 0.05 on 7th day) is on record as “higher in the CPT-11-treated mice than in the PCC0208037-treated mice”. Besides, in data set [1] (seven-day observation), the mortality entry was “No animal died”. In addition, in data set [1] (seven-day observation), the “recovery of body weight and food intake decrease” value is on record as “no apparent trend of recovery was observed”. For the same compound, the IC50 in the data set on CT-26 cells was more than 50 µM; with LS180 cells, 3.17 ± 0.58 µM; with HT-29 cells it was more than 50 µM; in the data set on HCT116 cells it was more than 50 µM. Also, the Cmax in data set [2] (setting [3]) came to 481 ± 112 ng/mL. The time to peak (Tmax) in data set [2] (setting [3]) worked out at 3.24 ± 2.19 h. The compound also displayed an AUCinf in data set [2] (setting [4]) of 393.1 ± 64.4 H * ng/mL. This compound displayed an AUClast in data set [2] (setting [4]) of 360.5 ±52.9 H * ng/mL. For the same compound, the “effect on body weight of tumor-bearing mice” value in the data set on LS180 xenograft tumor is “significant reduction in body weight”.
As for `CCc1c2c(nc3ccc(O)cc13)-c1cc3c(c(=O)n1C2)COC(=O)[C@]3(O)CC` [SN-38], the half-inhibitory concentration (IC50) in the data set on CT-26 cells was 0.44 ± 0.66 µM; in the data set on LS180 cells, 0.12 ± 0.01 µM; in the data set with HT-29 cells, 0.35 ± 0.02 µM; in the data set with HCT116 cells it was 3.58 ± 0.21 µM. Also, the “inhibition of Topo I activity (supercoiled plasmid DNA relaxation)” value at recombinant Topo I is recorded as “Topo I activity was inhibited”. Moreover, the values for the AUCinf in data set [2] (setting [5]) and in data set [2] (setting [6]) were 431.5 ± 62.5 H * ng/mL and 919.7 ± 176.1 H * ng/mL, respectively. The AUClast in data set [2] (setting [5]) stood at 394.6 ± 46.32 H * ng/mL; in data set [2] (setting [6]), 905.5 ± 173.7 H * ng/mL.
